Data: ChEMBL document CHEMBL1151757, “Synthesis, radiosynthesis, and biological evaluation of fluorine-18-labeled 2beta-carbo(fluoroalkoxy)-3beta-(3'-((Z)-2-haloethenyl)phenyl)nortropanes: candidate radioligands for in vivo imaging of the serotonin transporter with positron emission tomography” (J Med Chem, 2008)

Assays:
[1] = Ratio of drug uptake in midbrain to cerebellum in anesthetized cynomolgus monkey after 125 mins postinjection; format: ADME, organism-based, Macaca fascicularis; settings: in vivo
[2] = Octanol-water partition coefficient, log P at pH 7.4 by shake-flask method; format: physicochemical
Putamen [3] = test: Drug uptake in anesthetized cynomolgus monkey brain putamen after 145 mins postinjection; format: ADME, organism-based, Macaca fascicularis; settings: in vivo
[4] = Drug uptake in anesthetized cynomolgus monkey brain cerebellum after 235 mins postinjection; format: ADME, organism-based, Macaca fascicularis; settings: in vivo
Pons [5] = test: Drug uptake in anesthetized cynomolgus monkey brain pons after 45 mins postinjection; format: ADME, organism-based, Macaca fascicularis; settings: in vivo, 0.75 h
Medulla [6] = test: Drug uptake in anesthetized cynomolgus monkey brain medulla after 3.5 mins postinjection; format: ADME, organism-based, Macaca fascicularis; settings: in vivo
[7] = Ratio of drug uptake in putamen to cerebellum in anesthetized cynomolgus monkey after 3.5 mins postinjection; format: ADME, organism-based, Macaca fascicularis; settings: in vivo
[8] = Ratio of drug uptake in midbrain to cerebellum in anesthetized cynomolgus monkey after 185 mins postinjection; format: ADME, organism-based, Macaca fascicularis; settings: in vivo
[9] = Drug uptake in anesthetized cynomolgus monkey brain frontal lobe after 18.5 mins postinjection; format: ADME, organism-based, Macaca fascicularis; settings: in vivo
[10] = Drug uptake in anesthetized cynomolgus monkey brain cerebellum after 6.5 mins postinjection; format: ADME, organism-based, Macaca fascicularis; settings: in vivo
[11] = Ratio of drug uptake in pons to cerebellum in anesthetized cynomolgus monkey after 125 mins postinjection; format: ADME, organism-based, Macaca fascicularis; settings: in vivo
[12] = Drug uptake in anesthetized cynomolgus monkey brain frontal lobe after 22.5 mins postinjection; format: ADME, organism-based, Macaca fascicularis; settings: in vivo, 0.375 h
[13] = Ratio of drug uptake in caudate to cerebellum in anesthetized cynomolgus monkey after 135 mins postinjection; format: ADME, organism-based, Macaca fascicularis; settings: in vivo, 2.25 h
Thalamus [14] = test: Drug uptake in anesthetized cynomolgus monkey brain thalamus after 45 mins postinjection; format: ADME, organism-based, Macaca fascicularis; set-up: unit not given here; settings: in vivo, 0.75 h
Thalamus [15] = test: Drug uptake in anesthetized cynomolgus monkey brain thalamus after 225 mins postinjection; format: ADME, organism-based, Macaca fascicularis; set-up: unit not given here; settings: in vivo, 3.75 h
Putamen [16] = test: Drug uptake in anesthetized cynomolgus monkey brain putamen after 65 mins postinjection; format: ADME, organism-based, Macaca fascicularis; set-up: unit not given here; settings: in vivo
[17] = Ratio of drug uptake in caudate to cerebellum in anesthetized cynomolgus monkey after 225 mins postinjection; format: ADME, organism-based, Macaca fascicularis; settings: in vivo, 3.75 h
Thalamus [18] = test: Drug uptake in anesthetized cynomolgus monkey brain thalamus after 75 mins postinjection; format: ADME, organism-based, Macaca fascicularis; set-up: unit not given here; settings: in vivo, 1.25 h
Pons [19] = test: Drug uptake in anesthetized cynomolgus monkey brain pons after 35 mins postinjection; format: ADME, organism-based, Macaca fascicularis; settings: in vivo
Putamen [20] = test: Drug uptake in anesthetized cynomolgus monkey brain putamen after 95 mins postinjection; format: ADME, organism-based, Macaca fascicularis; set-up: unit not given here; settings: in vivo
Midbrain [21] = test: Drug uptake in anesthetized cynomolgus monkey brain midbrain after 75 mins postinjection; format: ADME, organism-based, Macaca fascicularis; set-up: unit not given here; settings: in vivo, 1.25 h
[22] = Ratio of drug uptake in frontal lobe to cerebellum in anesthetized cynomolgus monkey after 145 mins postinjection; format: ADME, organism-based, Macaca fascicularis; settings: in vivo
Caudate [23] = test: Drug uptake in anesthetized cynomolgus monkey brain caudate after 105 mins postinjection; format: ADME, organism-based, Macaca fascicularis, Caudate nucleus; settings: in vivo, 1.75 h
[24] = Drug uptake in anesthetized cynomolgus monkey brain frontal lobe after 27.5 mins postinjection; format: ADME, organism-based, Macaca fascicularis; settings: in vivo
[25] = Drug uptake in anesthetized cynomolgus monkey brain cerebellum after 215 mins postinjection; format: ADME, organism-based, Macaca fascicularis; settings: in vivo
Caudate [26] = test: Drug uptake in anesthetized cynomolgus monkey brain caudate after 225 mins postinjection; format: ADME, organism-based, Macaca fascicularis, Caudate nucleus; settings: in vivo, 3.75 h
Thalamus [27] = test: Drug uptake in anesthetized cynomolgus monkey brain thalamus after 1.5 mins postinjection; format: ADME, organism-based, Macaca fascicularis; settings: in vivo, 0.025 h
[28] = Ratio of drug uptake in putamen to cerebellum in anesthetized cynomolgus monkey after 0.5 mins postinjection; format: ADME, organism-based, Macaca fascicularis; settings: in vivo
Pons [29] = test: Drug uptake in anesthetized cynomolgus monkey brain pons after 195 mins postinjection; format: ADME, organism-based, Macaca fascicularis; settings: in vivo, 3.25 h
Midbrain [30] = test: Drug uptake in anesthetized cynomolgus monkey brain midbrain after 1.5 mins postinjection; format: ADME, organism-based, Macaca fascicularis; set-up: unit not given here; settings: in vivo, 0.025 h
[31] = Drug uptake in anesthetized cynomolgus monkey brain frontal lobe after 145 mins postinjection; format: ADME, organism-based, Macaca fascicularis; settings: in vivo
[32] = Ratio of drug uptake in occipital lobe to cerebellum in anesthetized cynomolgus monkey after 135 mins postinjection; format: ADME, organism-based, Macaca fascicularis; settings: in vivo, 2.25 h
[33] = Drug uptake in anesthetized cynomolgus monkey brain frontal lobe after 55 mins postinjection; format: ADME, organism-based, Macaca fascicularis; settings: in vivo
Medulla [34] = test: Drug uptake in anesthetized cynomolgus monkey brain medulla after 75 mins postinjection; format: ADME, organism-based, Macaca fascicularis; settings: in vivo, 1.25 h
Putamen [35] = test: Drug uptake in anesthetized cynomolgus monkey brain putamen after 12.5 mins postinjection; format: ADME, organism-based, Macaca fascicularis; set-up: unit not given here; settings: in vivo
Caudate [36] = test: Drug uptake in anesthetized cynomolgus monkey brain caudate after 18.5 mins postinjection; format: ADME, organism-based, Macaca fascicularis, Caudate nucleus; settings: in vivo
Pons [37] = test: Drug uptake in anesthetized cynomolgus monkey brain pons after 2.5 mins postinjection; format: ADME, organism-based, Macaca fascicularis; settings: in vivo
Caudate [38] = test: Drug uptake in anesthetized cynomolgus monkey brain caudate after 205 mins postinjection; format: ADME, organism-based, Macaca fascicularis, Caudate nucleus; settings: in vivo
Midbrain [39] = test: Drug uptake in anesthetized cynomolgus monkey brain midbrain after 235 mins postinjection; format: ADME, organism-based, Macaca fascicularis; settings: in vivo
Putamen [40] = test: Drug uptake in anesthetized cynomolgus monkey brain putamen after 45 mins postinjection; format: ADME, organism-based, Macaca fascicularis; set-up: unit not given here; settings: in vivo, 0.75 h
Putamen [41] = test: Drug uptake in anesthetized cynomolgus monkey brain putamen after 235 mins postinjection; format: ADME, organism-based, Macaca fascicularis; settings: in vivo
[42] = Ratio of drug uptake in occipital lobe to cerebellum in anesthetized cynomolgus monkey after 12.5 mins postinjection; format: ADME, organism-based, Macaca fascicularis; settings: in vivo
[43] = Ratio of drug uptake in caudate to cerebellum in anesthetized cynomolgus monkey after 65 mins postinjection; format: ADME, organism-based, Macaca fascicularis; settings: in vivo
Midbrain [44] = test: Drug uptake in anesthetized cynomolgus monkey brain midbrain after 15.5 mins postinjection; format: ADME, organism-based, Macaca fascicularis; set-up: unit not given here; settings: in vivo
[45] = Drug uptake in anesthetized cynomolgus monkey brain cerebellum after 85 mins postinjection; format: ADME, organism-based, Macaca fascicularis; settings: in vivo
Thalamus [46] = test: Drug uptake in anesthetized cynomolgus monkey brain thalamus after 85 mins postinjection; format: ADME, organism-based, Macaca fascicularis; set-up: unit not given here; settings: in vivo
Thalamus [47] = test: Drug uptake in anesthetized cynomolgus monkey brain thalamus after 3.5 mins postinjection; format: ADME, organism-based, Macaca fascicularis; set-up: unit not given here; settings: in vivo
Putamen [48] = test: Drug uptake in anesthetized cynomolgus monkey brain putamen after 9.5 mins postinjection; format: ADME, organism-based, Macaca fascicularis; set-up: unit not given here; settings: in vivo
Caudate [49] = test: Drug uptake in anesthetized cynomolgus monkey brain caudate after 75 mins postinjection; format: ADME, organism-based, Macaca fascicularis, Caudate nucleus; settings: in vivo, 1.25 h
[50] = Ratio of drug uptake in frontal lobe to cerebellum in anesthetized cynomolgus monkey after 125 mins postinjection; format: ADME, organism-based, Macaca fascicularis; settings: in vivo
Putamen [51] = test: Drug uptake in anesthetized cynomolgus monkey brain putamen after 27.5 mins postinjection; format: ADME, organism-based, Macaca fascicularis; set-up: unit not given here; settings: in vivo
[52] = Ratio of drug uptake in putamen to cerebellum in anesthetized cynomolgus monkey after 75 mins postinjection; format: ADME, organism-based, Macaca fascicularis; settings: in vivo, 1.25 h
[53] = Drug uptake in anesthetized cynomolgus monkey brain frontal lobe after 35 mins postinjection; format: ADME, organism-based, Macaca fascicularis; settings: in vivo
Medulla [54] = test: Drug uptake in anesthetized cynomolgus monkey brain medulla after 12.5 mins postinjection; format: ADME, organism-based, Macaca fascicularis; settings: in vivo
Midbrain [55] = test: Drug uptake in anesthetized cynomolgus monkey brain midbrain after 45 mins postinjection; format: ADME, organism-based, Macaca fascicularis; set-up: unit not given here; settings: in vivo, 0.75 h
Putamen [56] = test: Drug uptake in anesthetized cynomolgus monkey brain putamen after 35 mins postinjection; format: ADME, organism-based, Macaca fascicularis; set-up: unit not given here; settings: in vivo
[57] = Ratio of drug uptake in midbrain to cerebellum in anesthetized cynomolgus monkey after 235 mins postinjection; format: ADME, organism-based, Macaca fascicularis; settings: in vivo
Thalamus [58] = test: Drug uptake in anesthetized cynomolgus monkey brain thalamus after 105 mins postinjection; format: ADME, organism-based, Macaca fascicularis; set-up: unit not given here; settings: in vivo, 1.75 h
Caudate [59] = test: Drug uptake in anesthetized cynomolgus monkey brain caudate after 95 mins postinjection; format: ADME, organism-based, Macaca fascicularis, Caudate nucleus; settings: in vivo
Medulla [60] = test: Drug uptake in anesthetized cynomolgus monkey brain medulla after 185 mins postinjection; format: ADME, organism-based, Macaca fascicularis; settings: in vivo
Pons [61] = test: Drug uptake in anesthetized cynomolgus monkey brain pons after 1.5 mins postinjection; format: ADME, organism-based, Macaca fascicularis; settings: in vivo, 0.025 h
Midbrain [62] = test: Drug uptake in anesthetized cynomolgus monkey brain midbrain after 12.5 mins postinjection; format: ADME, organism-based, Macaca fascicularis; set-up: unit not given here; settings: in vivo
[63] = Drug uptake in anesthetized cynomolgus monkey brain frontal lobe after 85 mins postinjection; format: ADME, organism-based, Macaca fascicularis; settings: in vivo
Putamen [64] = test: Drug uptake in anesthetized cynomolgus monkey brain putamen after 195 mins postinjection; format: ADME, organism-based, Macaca fascicularis; settings: in vivo, 3.25 h
[65] = Ratio of drug uptake in medulla to cerebellum in anesthetized cynomolgus monkey after 85 mins postinjection; format: ADME, organism-based, Macaca fascicularis; settings: in vivo
[66] = Drug uptake in anesthetized cynomolgus monkey brain occipital lobe after 18.5 mins postinjection; format: ADME, organism-based, Macaca fascicularis; settings: in vivo
[67] = Drug uptake in anesthetized cynomolgus monkey brain frontal lobe after 9.5 mins postinjection; format: ADME, organism-based, Macaca fascicularis; settings: in vivo
Midbrain [68] = test: Drug uptake in anesthetized cynomolgus monkey brain midbrain after 0.5 mins postinjection; format: ADME, organism-based, Macaca fascicularis; set-up: unit not given here; settings: in vivo

O=C(OCC[18F])C1C2CCC(CC1c1cccc(/C=C\Br)c1)N2 (stereo not drawn)
Ratio [1]: 1.8
logD [2]: 1.4
Drug uptake (Putamen [3]): 4.21
Drug uptake [4]: 1.62
Drug uptake (Pons [5]): 4.45
Drug uptake (Medulla [6]): 1.26
Ratio [7]: 0.9
Ratio [8]: 2.2
Drug uptake [9]: 2.39
Drug uptake [10]: 2.75
Ratio [11]: 1.6
Drug uptake [12]: 2.54
Ratio [13]: 1.5
Drug uptake (Thalamus [14]): 4.15
Drug uptake (Thalamus [15]): 2.95
Drug uptake (Putamen [16]): 5.1
Ratio [17]: 1.8
Drug uptake (Thalamus [18]): 4.29
Drug uptake (Pons [19]): 4.22
Drug uptake (Putamen [20]): 4.83
Drug uptake (Midbrain [21]): 4.96
Ratio [22]: 1.1
Drug uptake (Caudate [23]): 4.01
Drug uptake [24]: 2.69
Drug uptake [25]: 1.78
Drug uptake (Caudate [26]): 2.93
Drug uptake (Thalamus [27]): 0.08
Ratio [28]: 1.3
Drug uptake (Pons [29]): 3.63
Drug uptake (Midbrain [30]): 0.08
Drug uptake [31]: 2.52
Ratio [32]: 1.1
Drug uptake [33]: 2.8
Drug uptake (Medulla [34]): 4.73
Drug uptake (Putamen [35]): 3.69
Drug uptake (Caudate [36]): 2.8
Drug uptake (Pons [37]): 0.42
Drug uptake (Caudate [38]): 2.92
Drug uptake (Midbrain [39]): 3.76
Drug uptake (Putamen [40]): 4.94
Drug uptake (Putamen [41]): 2.98
Ratio [42]: 0.8
Ratio [43]: 1.2
Drug uptake (Midbrain [44]): 4.06
Drug uptake [45]: 3.17
Drug uptake (Thalamus [46]): 4.41
Drug uptake (Thalamus [47]): 0.67
Drug uptake (Putamen [48]): 3.59
Drug uptake (Caudate [49]): 3.94
Ratio [50]: 1
Drug uptake (Putamen [51]): 4.67
Ratio [52]: 1.5
Drug uptake [53]: 2.78
Drug uptake (Medulla [54]): 4.2
Drug uptake (Midbrain [55]): 4.82
Drug uptake (Putamen [56]): 4.8
Ratio [57]: 2.3
Drug uptake (Thalamus [58]): 4.23
Drug uptake (Caudate [59]): 4.15
Drug uptake (Medulla [60]): 3.61
Drug uptake (Pons [61]): 0.09
Drug uptake (Midbrain [62]): 3.83
Drug uptake [63]: 2.88
Drug uptake (Putamen [64]): 3.53
Ratio [65]: 1.5
Drug uptake [66]: 2.89
Drug uptake [67]: 2.06
Drug uptake (Midbrain [68]): 0.01
